According to patent US20210045385A1, “PYRIDAZINONE-SUBSTITUTED KETOXIMES AS HERBICIDES” (FMC Corporation, priority 2018, published 2021):

Key:
Assay type in all cases: in vivo
[1] = test system: ragweed (common ragweed, Ambrosia artemisiifolia); assay: Test C preemergence, visual plant response rating; conditions: Test C, 0 is no effect, 100 is complete control
How it was run: (§1)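 Seeds sown in a loam–sand blend got a directed preemergence soil spray; postemergence plants (2–10 cm, one- to two-leaf stage) were sprayed with compound in a non-phytotoxic solvent plus surfactant. Injury was scored visually against untreated controls after about 10 d in a greenhouse on a 0–100 scale (100 = complete control).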

kochia (Bassia scoparia) [2] = assay: Test C preemergence, visual plant response rating; conditions: Test C, 0 is no effect, 100 is complete control
How it was run: as §1

[3] = test system: pigweed (Amaranthus retroflexus); assay: Test C preemergence, visual plant response rating; conditions: Test C, 0 is no effect, 100 is complete control
How it was run: as §1

[4] = test system: foxtail, giant (giant foxtail, Setaria faberi); assay: Test C preemergence, visual plant response rating; conditions: Test C, 0 is no effect, 100 is complete control
How it was run: as §1

[5] = test system: Italian ryegrass (Lolium mutiflorum); assay: Test C preemergence, visual plant response rating; conditions: Test C, 0 is no effect, 100 is complete control
How it was run: as §1

[6] = test system: barnyardgrass (Echinochloa crus-galli); assay: Test C preemergence, visual plant response rating; conditions: Test C, 0 is no effect, 100 is complete control
How it was run: as §1

rice (Oryza sativa) = assay: Test D flooded paddy test, visual plant response rating; conditions: 250 g ai/ha, scale 0 to 100 (0 no effect, 100 complete control), 13 to 15 d
How it was run: (§2)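 Greenhouse paddy assay scored on a 0–100 visual scale after 13 to 15 d, where 100 means complete control and a dash marks no result; dosing was into 3 cm floodwater over 2-leaf plants.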

[7] = test system: sedge umbrella (small-flower umbrella sedge, Cyperus difformis); assay: as above; conditions: 250 g ai/ha, scale 0 to 100 (0 no effect, 100 complete control), 13 to 15 d
How it was run: as §2

[8] = test system: duck salad (Heteranthera limosa); assay: as above; conditions: 250 g ai/ha, scale 0 to 100 (0 no effect, 100 complete control), 13 to 15 d
How it was run: as §2

[9] = test system: barnyardgrass (Echinochloa crus-galli); assay: as above; conditions: 250 g ai/ha, scale 0 to 100 (0 no effect, 100 complete control), 13 to 15 d
How it was run: as §2

[10] = test system: ragweed (common ragweed, Ambrosia artemisiifolia); assay: Test C postemergence, visual plant response rating
How it was run: as §1

kochia (Bassia scoparia) [11] = assay: Test C postemergence, visual plant response rating
How it was run: as §1

[12] = test system: blackgrass (Alopecurus myosuroides); assay: Test C postemergence, visual plant response rating
How it was run: as §1

[13] = test system: pigweed (Amaranthus retroflexus); assay: Test C postemergence, visual plant response rating
How it was run: as §1

[14] = test system: foxtail, giant (giant foxtail, Setaria faberi); assay: Test C postemergence, visual plant response rating
How it was run: as §1

corn (Zea mays) = assay: Test C postemergence, visual plant response rating
How it was run: as §1

[15] = test system: Italian ryegrass (Lolium mutiflorum); assay: Test C postemergence, visual plant response rating
How it was run: as §1

[16] = test system: galium (catchweed bedstraw, Galium aparine); assay: Test C postemergence, visual plant response rating
How it was run: as §1

[17] = test system: wheat (Triticum aestivum); assay: Test C postemergence, visual plant response rating
How it was run: as §1

[18] = test system: barnyardgrass (Echinochloa crus-galli); assay: Test C postemergence, visual plant response rating
How it was run: as §1

[19] = Test C, postemergence, 125 g ai/ha

| SMILES | Ragweed plant response rating (0 to 100 scale) ([1]; 31 g ai/ha) | Ragweed plant response rating (0 to 100 scale) ([1]; 125 g ai/ha) | Kochia plant response rating (0 to 100 scale) (kochia (Bassia scoparia) [2]; 31 g ai/ha) | Kochia plant response rating (0 to 100 scale) (kochia (Bassia scoparia) [2]; 125 g ai/ha) | Pigweed plant response rating (0 to 100 scale) ([3]; 31 g ai/ha) | Pigweed plant response rating (0 to 100 scale) ([3]; 125 g ai/ha) | Foxtail, Giant plant response rating (0 to 100 scale) ([4]; 31 g ai/ha) | Foxtail, Giant plant response rating (0 to 100 scale) ([4]; 125 g ai/ha) | Ryegrass, Italian plant response rating (0 to 100 scale) ([5]; 31 g ai/ha) | Ryegrass, Italian plant response rating (0 to 100 scale) ([5]; 125 g ai/ha) | Barnyardgrass plant response rating (0 to 100 scale) ([6]; 31 g ai/ha) | Barnyardgrass plant response rating (0 to 100 scale) ([6]; 125 g ai/ha) | Plant response rating, Rice (Flood) (rice (Oryza sativa)) | Plant response rating, Sedge, Umbrella (Flood) [7] | Plant response rating, Ducksalad (Flood) [8] | Plant response rating, Barnyardgrass (Flood) [9] | Ragweed plant response rating (0 to 100 scale) ([10]; Postemergence, 31 g ai/ha) | Ragweed plant response rating (0 to 100 scale) [10, 19] | Kochia plant response rating (0 to 100 scale) (kochia (Bassia scoparia) [11]; Postemergence, 31 g ai/ha) | Kochia plant response rating (0 to 100 scale) (kochia (Bassia scoparia) [11]; [19]) | other results |
| --- | --- | --- | --- | --- | --- | --- | --- | --- | --- | --- | --- | --- | --- | --- | --- | --- | --- | --- | --- | --- | --- |
| CCO/N=C(/c1c(O)c(C)nn(C)c1=O)c1cccc2cc(Cl)ccc12 [Compound 244] | 10 | 20 | 0 | 0 | 50 | 90 | 90 | 100 | 0 | 20 | 40 | 70 | 15 | 45 | 50 | 10 | 90 | 40 | 20 | 20 | Blackgrass plant response rating (0 to 100 scale) ([12]; Postemergence, 31 g ai/ha): 40; Blackgrass plant response rating (0 to 100 scale) [12, 19]: 70; Pigweed plant response rating (0 to 100 scale) ([13]; Postemergence, 31 g ai/ha): 80; Pigweed plant response rating (0 to 100 scale) [13, 19]: 90; Foxtail, Giant plant response rating (0 to 100 scale) ([14]; Postemergence, 31 g ai/ha): 80; Foxtail, Giant plant response rating (0 to 100 scale) [14, 19]: 80; Corn plant response rating (0 to 100 scale) (corn (Zea mays); Postemergence, 31 g ai/ha): 10; Corn plant response rating (0 to 100 scale) (corn (Zea mays); [19]): 30; Ryegrass, Italian plant response rating (0 to 100 scale) ([15]; Postemergence, 31 g ai/ha): 0; Ryegrass, Italian plant response rating (0 to 100 scale) [15, 19]: 10; Galium plant response rating (0 to 100 scale) ([16]; Postemergence, 31 g ai/ha): 80; Galium plant response rating (0 to 100 scale) [16, 19]: 90; Wheat plant response rating (0 to 100 scale) ([17]; Postemergence, 31 g ai/ha): 0; Wheat plant response rating (0 to 100 scale) [17, 19]: 0; Barnyardgrass plant response rating (0 to 100 scale) ([18]; Postemergence, 31 g ai/ha): 30; Barnyardgrass plant response rating (0 to 100 scale) [18, 19]: 50 |
| C#CCO/N=C(/c1cccc(/C=C\Cl)c1)c1c(O)c(C)nn(C)c1=O [Compound 261] | 0 | 10 | 0 | 0 | 0 | 10 | 0 | 10 | 0 | 70 | 0 | 0 | 0 | 0 | 0 | 0 | 40 | 60 | 30 | 60 | Blackgrass plant response rating (0 to 100 scale) ([12]; Postemergence, 31 g ai/ha): 0; Blackgrass plant response rating (0 to 100 scale) [12, 19]: 60; Pigweed plant response rating (0 to 100 scale) ([13]; Postemergence, 31 g ai/ha): 50; Pigweed plant response rating (0 to 100 scale) [13, 19]: 60; Foxtail, Giant plant response rating (0 to 100 scale) ([14]; Postemergence, 31 g ai/ha): 10; Foxtail, Giant plant response rating (0 to 100 scale) [14, 19]: 50; Corn plant response rating (0 to 100 scale) (corn (Zea mays); Postemergence, 31 g ai/ha): 0; Corn plant response rating (0 to 100 scale) (corn (Zea mays); [19]): 10; Ryegrass, Italian plant response rating (0 to 100 scale) ([15]; Postemergence, 31 g ai/ha): 0; Ryegrass, Italian plant response rating (0 to 100 scale) [15, 19]: 60; Galium plant response rating (0 to 100 scale) ([16]; Postemergence, 31 g ai/ha): 40; Galium plant response rating (0 to 100 scale) [16, 19]: 80; Wheat plant response rating (0 to 100 scale) ([17]; Postemergence, 31 g ai/ha): 0; Wheat plant response rating (0 to 100 scale) [17, 19]: 50; Barnyardgrass plant response rating (0 to 100 scale) ([18]; Postemergence, 31 g ai/ha): 20; Barnyardgrass plant response rating (0 to 100 scale) [18, 19]: 40 |
| CO/N=C(/c1c(O)c(C)nn(C)c1=O)c1cccc2cc(Cl)ccc12 [Compound 301] | 0 | 0 | 0 | 0 | 0 | 20 | 20 | 80 | 0 | 30 | 0 | 40 | 0 | 0 | 0 | 0 | 10 | 30 | 0 | 30 | Blackgrass plant response rating (0 to 100 scale) ([12]; Postemergence, 31 g ai/ha): 0; Blackgrass plant response rating (0 to 100 scale) [12, 19]: 60; Pigweed plant response rating (0 to 100 scale) ([13]; Postemergence, 31 g ai/ha): 50; Pigweed plant response rating (0 to 100 scale) [13, 19]: 70; Foxtail, Giant plant response rating (0 to 100 scale) ([14]; Postemergence, 31 g ai/ha): 40; Foxtail, Giant plant response rating (0 to 100 scale) [14, 19]: 70; Corn plant response rating (0 to 100 scale) (corn (Zea mays); Postemergence, 31 g ai/ha): 0; Corn plant response rating (0 to 100 scale) (corn (Zea mays); [19]): 20; Ryegrass, Italian plant response rating (0 to 100 scale) ([15]; Postemergence, 31 g ai/ha): 0; Ryegrass, Italian plant response rating (0 to 100 scale) [15, 19]: 10; Galium plant response rating (0 to 100 scale) ([16]; Postemergence, 31 g ai/ha): 70; Galium plant response rating (0 to 100 scale) [16, 19]: 90; Wheat plant response rating (0 to 100 scale) ([17]; Postemergence, 31 g ai/ha): 0; Wheat plant response rating (0 to 100 scale) [17, 19]: 0; Barnyardgrass plant response rating (0 to 100 scale) ([18]; Postemergence, 31 g ai/ha): 20; Barnyardgrass plant response rating (0 to 100 scale) [18, 19]: 40 |
